Broadly, the Ki is a dissociation constant, usually derived from enzyme kinetics or from competition with a known ligand.

*1 amine or outer side, *2 acyl side, *3 side chain or, on linkers, in order; H or OH if unused. Where a SMILES comes first, the peptide text is derived from it. [ ]: non-standard residue; d: D form. The star is where a group is joined. Pro(3R,4S-CMe2) = CC1(C)[C@@H]2[C@@H](C(=O)O)NC[C@@H]21; X1 = CN(C[C@@H](N*)C(C)(C)C)S(C)(=O)=O; Abu(4,4-F2) = N[C@@H](CC(F)F)C(=O)O; Phe(ol) = N[C@H](CO)Cc1ccccc1; Tle = CC(C)(C)[C@H](N)C(=O)O; CO = O=C([*:1])[*:2] Bounds are passed on as bounds.

Our source for the Ki values is patent publication US7449447B2, “Peptidomimetic NS3-serine protease inhibitors of hepatitis C virus” (priority 2003, dated 2008).

For the first experiment, the target named is T1, HCV NS3/NS4a serine protease (Hepatitis C virus genotype 1b, UniProt P26663).
T1 construct: amino terminus of the NS3 protease domain (amino acids 3-181) with a tetrapeptide linker; made in house; host or cells: E. coli
T1 sequence (P26663 1013-1207, looked up, natural form): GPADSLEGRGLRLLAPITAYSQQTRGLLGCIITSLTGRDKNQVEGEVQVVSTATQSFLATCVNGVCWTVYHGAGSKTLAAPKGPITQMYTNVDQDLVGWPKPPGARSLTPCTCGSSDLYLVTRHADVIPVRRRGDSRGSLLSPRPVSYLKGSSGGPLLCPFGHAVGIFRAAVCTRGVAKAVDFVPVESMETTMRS
Kind of experiment: Spectrophotometric assay for HCV protease inhibitory activity (chromogenic ester substrates). It is filed as biochemical, hepatitis C virus (strain 1b). To be noted: Ki Rating, Table 2; single chain NS4A21-32-GSGS-NS3 3-181 protease, 30° C., pH 6.5. The method, then:
Spectrophotometric Assay: Spectrophotometric assays for the HCV serine protease were performed on the inventive compounds by following the procedure described by R. Zhang et al., Analytical Biochemistry, 270 (1999) 268-275, the disclosure of which is incorporated herein by reference. The assay based on the proteolysis of chromogenic ester substrates is suitable for the continuous monitoring of HCV NS3 protease activity.
HCV NS3 protease (strain 1b) and its NS4A cofactor were constructed as a recombinant single chain protein. The NS4A cofactor domain (amino acid residues 21-32) was fused in frame to the amino terminus of the NS3 protease domain (amino acids 3-181) with a tetrapeptide linker. This NS4A 21-32-GSGS-NS33-181 construct was then expressed in E. coli and purified to >90% homogeneity. Kinetic parameters were determined and found to be the same as that of the full length NS31-631/NS4A1-54 protein complex produced in the baculovirus system (D. L. Sali et al, Biochemistry, 37 (1998) 3392-340). The details of the cloning, expression, purification and kinetic analysis of the of the single chain recombinant protease have been previously described (S. S. Taremi, et al. Protein Science. 7 (1998) 2143-2149.
Protein concentrations were determined by the Biorad dye method using recombinant HCV protease standards previously quantified by amino acid analysis. Prior to assay initiation, the enzyme storage buffer (50 mM sodium phosphate pH 8.0, 300 mM NaCl, 10% glycerol, 0.05% lauryl maltoside and 10 mM DTT) was exchanged for the assay buffer (25 mM MOPS pH 6.5, 300 mM NaCl, 10% glycerol, 0.05% lauryl maltoside, 5 μM EDTA and 5 μM DTT) utilizing a Biorad Bio-Spin P-6 prepacked column.
Protease Assay: HCV protease assays were performed at 30° C. using a 200 μl reaction mix in a 96-well microtiter plate. Assay buffer conditions (25 mM MOPS pH 6.5, 300 mM NaCl, 10% glycerol, 0.05% lauryl maltoside, 5 μM EDTA and 5 μM DTT) were optimized for the NS3/NS4A heterodimer (D. L. Sali et al, ibid.)). Typically, 100 μl mixtures of buffer, substrate and inhibitor were placed in wells and allowed to preincubate at 30° C. for approximately 3 minutes. One hundred μls of pre-warmed protease (30° C.) in assay buffer, was then used to initiate the reaction to produce a final concentration of 1.3 nM HCV). The Substrate cleavage by the protease was monitored over 60 minutes by measuring the release of the phenylazophenol (PAP) product at an absorbance of 370 nm with a continuous read every 30 seconds using a SpectraMax Plus microtiter plate reader (Molecular Devices, Sunnyvale, Calif.). Background hydrolysis of the substrate was subtracted. Inhibitors were tested over a range of concentrations (final DMSO concentration 4%)
Evaluation of Inhibitors The inhibition constants (Ki) for the competitive inhibitors were determined experimentally at fixed concentrations of enzyme and substrate by plotting vo/vi vs. inhibitor concentration ([I]o) according to the rearranged Michaelis-Menten equation for competitive inhibition kinetics: vo/vi=1+[I]o/(Ki(1+[S]o/Km)), where vo is the uninhibited initial velocity, vi is the initial velocity in the presence of inhibitor at any given inhibitor concentration ([I]o) and [S]o is the substrate concentration used. The resulting data were fitted using linear regression and the resulting slope, 1/(Ki(1+[S]o/Km), was used to calculate the Ki value.
`CC(C)[C@H](NC(=O)N[C@H](C(=O)N1C[C@H]2[C@@H]([C@H]1C(=O)N[C@@H](CC(F)F)C(=O)NCCc1ccc(C(N)=O)cc1)C2(C)C)C(C)(C)C)C(=O)O` [Example 124]: the Ki fell in the range of 100 to 500 nM.

On to `COC[C@@H](NC(=O)N[C@H](C(=O)N1C[C@H]2[C@@H]([C@H]1C(=O)N[C@@H](CC(F)F)C(=O)NCCc1ccc(C(=O)OC)cc1)C2(C)C)C(C)(C)C)C(C)(C)C` [Example 142], for which the Ki is 100 to 500 nM. `CC(C)[C@H](NC(=O)N[C@H](C(=O)N1C[C@H]2[C@@H]([C@H]1C(=O)N[C@@H](CC(F)F)C(=O)NCCc1ccc(C(N)=O)cc1)C2(C)C)C(C)(C)C)C(=O)OC(C)(C)C` [Example 126]: the Ki is 100 to 500 nM.

Turning to `CC1(C)C[C@H]2[C@H](CN(C(=O)[C@@H](NC(=O)OCc3ccccc3)C3CCCCC3)[C@@H]2C(=O)N[C@@H](CC(F)F)C(=O)NCCc2ccccc2)O1` [Example 158], the inhibition constant (Ki) was more than 500 nM.

Consider `CC(C)[C@H](NC(=O)N[C@H](C(=O)N1C[C@H]2[C@@H]([C@H]1C(=O)N[C@@H](CC(F)F)C(N)=O)C2(C)C)C(C)(C)C)C(=O)O` [Example 157], for which the Ki is more than 500 nM. For `COC(=O)c1ccc(CCNC(=O)[C@H](CC(F)F)NC(=O)[C@@H]2[C@@H]3[C@H](CN2C(=O)[C@@H](NC(=O)N[C@H](C(=O)OCC2CC2)C(C)(C)C)C(C)(C)C)C3(C)C)cc1` [Example 143], the inhibition constant (Ki) lay within 100 to 500 nM. On the same count and under the same terms, with `CC1(NC(=O)N[C@H](C(=O)N2C[C@H]3[C@@H]([C@H]2C(=O)N[C@@H](CC(F)F)C(=O)NCCC(=O)O)C3(C)C)C(C)(C)C)CCCCC1` [Example 165] the figure was more than 500 nM; with `CC1(C)C[C@H]2[C@H](CN(C(=O)[C@@H](NC(=O)OCc3ccccc3)C3CCCCC3)[C@@H]2C(=O)N[C@@H](CC(F)F)C(=O)O)O1` [Example 161], more than 500 nM. Still for that read-out and setting: the result for `CC(C)[C@H](NC(=O)N[C@H](C(=O)N1C[C@H]2[C@@H]([C@H]1C(=O)N[C@@H](CC(F)F)C(=O)NCCc1ccc(C(N)=O)cc1)C2(C)C)C(C)(C)C)C(N)=O` [Example 144] reads 100 to 500 nM.

Staying with this experiment, now noted: Ki, Table 1; single chain NS4A21-32-GSGS-NS3 3-181 protease, 30° C., pH 6.5.
Consider `COC(=O)c1ccc(CCNC(=O)[C@H](CC(F)F)NC(=O)[C@@H]2[C@@H]3[C@H](CN2C(=O)[C@@H](NC(=O)N[C@H](CN(C)S(=O)(=O)c2ccccc2)C(C)C)C(C)(C)C)C3(C)C)cc1` [Example 116], for which the inhibition constant Ki came to 100 nM.

In the case of `CC(C)[C@@H](CNS(=O)(=O)c1ccccc1)NC(=O)N[C@H](C(=O)N1C[C@H]2[C@@H]([C@H]1C(=O)N[C@@H](CC(F)F)C(=O)NCCc1ccc(C(=O)O)cc1)C2(C)C)C(C)(C)C` [Example 115], the inhibitory constant (Ki) came to 90 nM.

The experiment is the same for the next values; noted with them: Ki, Table 3; rating; single chain NS4A21-32-GSGS-NS3 3-181 protease, 30° C., pH 6.5.
Regarding `CN(C[C@@H](NC(=O)N[C@H](C(=O)N1C[C@H]2[C@@H]([C@H]1C(=O)N[C@@H](CC(F)F)C(=O)N[C@H](CO)Cc1ccccc1)C2(C)C)C(C)(C)C)C(C)(C)C)S(C)(=O)=O` [Example 249] ({X1-CO}-[Tle][Pro(3R,4S-CMe2)][Abu(4,4-F2)][Phe(ol)]), the Ki is more than 500 nM. With `CN(C[C@@H](NC(=O)N[C@H](C(=O)N1C[C@H]2[C@@H]([C@H]1C(=O)N[C@@H](CC(F)F)C(=O)NCCc1ccc(F)cc1)C2(C)C)C(C)(C)C)C(C)(C)C)S(C)(=O)=O` [Example 265], the Ki was less than 100 nM. Regarding `CN(C[C@@H](NC(=O)N[C@H](C(=O)N1C[C@H]2[C@@H]([C@H]1C(=O)N[C@@H](CC(F)F)C(=O)NCCCn1ccnc1)C2(C)C)C(C)(C)C)C(C)(C)C)S(C)(=O)=O` [Example 239], the Ki is more than 500 nM. The same measure, in the same setting: with `COc1ccc(CCNC(=O)[C@H](CC(F)F)NC(=O)[C@@H]2[C@@H]3[C@H](CN2C(=O)[C@@H](NC(=O)N[C@H](CN(C)S(C)(=O)=O)C(C)(C)C)C(C)(C)C)C3(C)C)cc1O` [Example 295] the figure was less than 100 nM; with `CN(C[C@@H](NC(=O)N[C@H](C(=O)N1C[C@H]2[C@@H]([C@H]1C(=O)N[C@@H](CC(F)F)C(=O)NCCc1cccs1)C2(C)C)C(C)(C)C)C(C)(C)C)S(C)(=O)=O` [Example 216], less than 100 nM; with `CC(C)CNC(=O)[C@H](CC(F)F)NC(=O)[C@@H]1[C@@H]2[C@H](CN1C(=O)[C@@H](NC(=O)N[C@H](CN(C)S(C)(=O)=O)C(C)(C)C)C(C)(C)C)C2(C)C` [Example 206], more than 500 nM. For `CN(C[C@@H](NC(=O)N[C@H](C(=O)N1C[C@H]2[C@@H]([C@H]1C(=O)N[C@@H](CC(F)F)C(=O)NC1CCCc3ccccc31)C2(C)C)C(C)(C)C)C(C)(C)C)S(C)(=O)=O` (stereo partly drawn) [Example 224], the Ki was more than 500 nM. Same read-out and setting: the result for `CN(C[C@@H](NC(=O)N[C@H](C(=O)N1C[C@H]2[C@@H]([C@H]1C(=O)N[C@@H](CC(F)F)C(=O)NCC1CC1)C2(C)C)C(C)(C)C)C(C)(C)C)S(C)(=O)=O` [Example 205] reads more than 500 nM; that for `CN(C[C@@H](NC(=O)N[C@H](C(=O)N1C[C@H]2[C@@H]([C@H]1C(=O)N[C@@H](CC(F)F)C(=O)NCCc1c(Cl)cccc1Cl)C2(C)C)C(C)(C)C)C(C)(C)C)S(C)(=O)=O` [Example 284], less than 100 nM; that for `CN(C[C@@H](NC(=O)N[C@H](C(=O)N1C[C@H]2[C@@H]([C@H]1C(=O)N[C@@H](CC(F)F)C(=O)NCCc1ccc(S(N)(=O)=O)cc1)C2(C)C)C(C)(C)C)C(C)(C)C)S(C)(=O)=O` [Example 201], less than 100 nM. For the compound `CN(C[C@@H](NC(=O)N[C@H](C(=O)N1C[C@H]2[C@@H]([C@H]1C(=O)N[C@@H](CC(F)F)C(=O)NCCc1cccc(F)c1)C2(C)C)C(C)(C)C)C(C)(C)C)S(C)(=O)=O` [Example 264], the Ki was less than 100 nM. On the same count and under the same terms, with `CCN(CC)CCNC(=O)[C@H](CC(F)F)NC(=O)[C@@H]1[C@@H]2[C@H](CN1C(=O)[C@@H](NC(=O)N[C@H](CN(C)S(C)(=O)=O)C(C)(C)C)C(C)(C)C)C2(C)C` [Example 234] the figure was more than 500 nM. The same measure, in the same setting: the result for `COc1ccccc1CCNC(=O)[C@H](CC(F)F)NC(=O)[C@@H]1[C@@H]2[C@H](CN1C(=O)[C@@H](NC(=O)N[C@H](CN(C)S(C)(=O)=O)C(C)(C)C)C(C)(C)C)C2(C)C` [Example 269] reads less than 100 nM. Still for that read-out and setting: with `CN(C[C@@H](NC(=O)N[C@H](C(=O)N1C[C@H]2[C@@H]([C@H]1C(=O)N[C@@H](CC(F)F)C(=O)NCCc1ccc(O)cc1)C2(C)C)C(C)(C)C)C(C)(C)C)S(C)(=O)=O` [Example 245] the figure was less than 100 nM; with `CCOC(=O)N1CCC(NC(=O)[C@H](CC(F)F)NC(=O)[C@@H]2[C@@H]3[C@H](CN2C(=O)[C@@H](NC(=O)N[C@H](CN(C)S(C)(=O)=O)C(C)(C)C)C(C)(C)C)C3(C)C)CC1` [Example 227], more than 500 nM. Turning to `CN(C[C@@H](NC(=O)N[C@H](C(=O)N1C[C@H]2[C@@H]([C@H]1C(=O)N[C@@H](CC(F)F)C(=O)NCC(c1ccccc1)c1ccccc1)C2(C)C)C(C)(C)C)C(C)(C)C)S(C)(=O)=O` [Example 228], the inhibition constant (Ki) was more than 500 nM. On the same count and under the same terms, the result for `C[C@H](NC(=O)[C@H](CC(F)F)NC(=O)[C@@H]1[C@@H]2[C@H](CN1C(=O)[C@@H](NC(=O)N[C@H](CN(C)S(C)(=O)=O)C(C)(C)C)C(C)(C)C)C2(C)C)[C@H](O)c1ccccc1` [Example 248] reads less than 100 nM; that for `CC(CCc1ccccc1)NC(=O)[C@H](CC(F)F)NC(=O)[C@@H]1[C@@H]2[C@H](CN1C(=O)[C@@H](NC(=O)N[C@H](CN(C)S(C)(=O)=O)C(C)(C)C)C(C)(C)C)C2(C)C` (stereo partly drawn) [Example 225], more than 500 nM; that for `CN(C[C@@H](NC(=O)N[C@H](C(=O)N1C[C@H]2[C@@H]([C@H]1C(=O)N[C@@H](CC(F)F)C(=O)N[C@@H]1C[C@@H]1c1ccccc1)C2(C)C)C(C)(C)C)C(C)(C)C)S(C)(=O)=O` [Example 308], less than 100 nM.
